PubChem BioAssay AID624029 (Broad Institute, 2012)
Calls of active or inactive are those of the source.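 Rule for the calls: active = compounds lowering HDL uptake fluorescence with a fitted half-maximal potency at most twice the top tested dose; inconclusive = flat partial inhibition of 30 to 70% or an unreliable fit; inactive = the rest.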

Each compound was assayed against Scavenger receptor class B member 1 (Mus musculus) (UniProt Q61009) (assay: inhibitors of SR-BI-mediated HDL uptake, dose response, cell-based, ldlA[mSR-BI] CHO, DiI fluorescence, dry powder, set 10 (AID 624029)). Conditions: 3 h.
Chain of Scavenger receptor class B member 1 (Mus musculus) (Q61009 whole entry, looked up): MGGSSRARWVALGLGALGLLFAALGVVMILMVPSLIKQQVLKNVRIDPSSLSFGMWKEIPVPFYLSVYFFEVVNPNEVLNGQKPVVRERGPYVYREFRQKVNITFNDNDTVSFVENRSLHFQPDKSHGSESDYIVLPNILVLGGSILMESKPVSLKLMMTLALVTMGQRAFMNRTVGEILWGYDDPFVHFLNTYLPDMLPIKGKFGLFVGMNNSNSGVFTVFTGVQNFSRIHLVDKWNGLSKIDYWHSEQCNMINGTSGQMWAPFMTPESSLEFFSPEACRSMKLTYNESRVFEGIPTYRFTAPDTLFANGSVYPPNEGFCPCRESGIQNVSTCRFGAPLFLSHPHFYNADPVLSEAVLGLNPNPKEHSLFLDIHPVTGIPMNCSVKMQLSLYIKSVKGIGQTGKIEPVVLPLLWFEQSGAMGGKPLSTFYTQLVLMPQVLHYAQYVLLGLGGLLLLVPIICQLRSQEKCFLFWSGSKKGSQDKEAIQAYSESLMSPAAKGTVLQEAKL

SMILES	AC50 [nM]
CC(C)NC(=O)Nc1ccc2c(c1)C(=O)N([C@H](C)CO)C[C@@H](C)[C@H](CN(C)S(=O)(=O)c1ccc(Cl)cc1)O2	293

Same assay, conditions: 3 h, at 35 µM (top of the series)

SMILES	activity change, negative = inhibition
CC(C)NC(=O)Nc1ccc2c(c1)CC(=O)N([C@H](C)CO)C[C@@H](C)[C@H](CN(C)S(=O)(=O)c1ccc(Cl)cc1)O2	inactive
CC(C)NC(=O)Nc1ccc2c(c1)C(=O)N([C@H](C)CO[Si](C)(C)C(C)(C)C)C[C@@H](C)[C@H](CN(C)S(=O)(=O)c1ccc(Cl)cc1)O2	inactive
CC(C)NC(=O)Nc1cccc2c1O[C@@H](CN(C)S(=O)(=O)c1ccc(Cl)cc1)[C@H](C)CN([C@H](C)CO)C2=O	inactive
C=CCOC(=O)N(C)C[C@@H]1Oc2ccc(NC(=O)NC(C)C)cc2C(=O)N([C@H](C)CO[Si](C)(C)C(C)(C)C)C[C@H]1C	inactive
C[C@@H]1CN([C@H](C)CO)C(=O)c2cc(NC(=O)Nc3ccc(F)cc3)ccc2O[C@H]1CN(C)S(=O)(=O)c1ccc(Cl)cc1	inactive
CNC[C@@H]1Oc2ccc(NC(=O)NC(C)C)cc2C(=O)N([C@H](C)CO[Si](C)(C)C(C)(C)C)C[C@H]1C	inactive
C=CCOC(=O)N(C)C[C@@H]1Oc2ccc(NC(=O)OCC3c4ccccc4-c4ccccc43)cc2C(=O)N([C@H](C)CO)C[C@H]1C	inactive
